According to US9925154B2 (Seattle Children's Hospital, priority 2011, dated 2018):
Where a name gives a salt, the structure may show the parent alone. Read-outs that look alike come from different tables or passages of the source.

Assays:
[1] = system: unilateral ureteral obstruction (UUO) kidneys; assay: IP cysteamine HCL dose trial in UUO mice; format: in vivo
Description: Unilateral ureteral obstruction (UUO) was performed on ten mice.

[2] = Plasma cysteamine levels by mass spectrometry; format: in vivo, mice; settings: for plasma levels of cysteamine at the time of sacrifice: day 14 after UUO
Description: Plasma cysteamine levels were measured by mass spectrometry by the reference laboratory at UC San Diego that also runs most of the human samples for the North American patients with cystinosis.
Plasma levels were taken every hour during the evening (for 12 hours) and every four hours during the day (n=4/group).

[3] = system: unilateral ureteral obstruction (UUO) kidneys; settings: for severity of fibrosis as measured by total collagen content: day 14 after UUO
Description: Mice were sacrificed at day 14 after UUO and total renal collagen levels (μg hydroxyproline/mg) were measured. Total collagen in the tissue was calculated on the assumption that collagen contains 12.7% hydroxyproline by weight.

[4] = system: UUO kidneys; assay: Total kidney collagen (hydroxyproline) in UUO kidneys; format: in vivo, mice; settings: for reduction of total kidney collagen content: day 14 after UUO
Description: (§1) Cysteamine bitartrate, the bitartrate salt of cysteamine is known commercially as Cystagon®. […] Both doses were well-tolerated and measured serum levels of cysteamine were appropriate.
Unilateral ureteral obstruction (UUO) was performed on 8 week-old wild-type male mice on a C57BL6 background. […] Groups of mice (n=8-10 mice per group at each time-point) were studied 3, 7, 14, and 21 days after the onset of chronic injury induced by UUO.
Total collagen was measured as hydroxyproline concentration in hydrolysates extracted from frozen normal (unobstructed) and UUO kidney samples. […] Collagen reduction was confirmed by sirius red staining

[5] = system: E-cadherin; assay: E-cadherin immunoblotting in UUO mice; format: in vivo; settings: treated UUO mice
From the text: as §1

[6] = system: fibronectin; assay: ECM gene mRNA by real-time qPCR in UUO kidneys: fibronectin; format: in vivo, mice; settings: day 7 after UUO
Description: (§2) Unilateral ureteral obstruction (UUO) was performed on 8 week-old wild-type male mice on a C57BL6 background. […] The kidneys were harvested at 3, 7, and 14 days after UUO.
(§3) Extracellular matrix (ECM) gene mRNA levels were measured by semiquantitative real-time PCR (qPCR) in both doses at 3, 7 and 14 days after UUO. Real-time qPCR) was performed with specific primers for collagen 1A1, collagen 3A1, fibronectin, and other profibrotic and proinflammatory genes using standard protocols. Semi-quantitative real-time qPCR data was analyzed with REST software using both GAPDH and 18S as reference genes. Reactions were run in triplicate, and mean threshold crossing cycle (Ct) values were compared. ‡P<0.05; †P<0.01.

[7] = system: procollagen I; assay: ECM gene mRNA by real-time qPCR in UUO kidneys: procollagen I; format: in vivo, mice; settings: 600 mg/kg
Description: as §2, §3

[8] = system: procollagen III; assay: ECM gene mRNA by real-time qPCR in UUO kidneys: procollagen III; format: in vivo, mice; settings: day 7 after UUO
Description: as §2, §3

[9] = system: α-SMA-positive myofibroblasts; assay: α-SMA immunoperoxidase staining of UUO kidneys; format: in vivo, mice
Description: Myofibroblast activation and accumulation was examined after UUO by measuring the expression of α-smooth muscle actin (α-SMA), a marker of myofibroblast activation. Interstitial myofibroblasts are the primary matrix-producing cell in response to kidney injury. […] Cell proliferation was measured by counting BrdU positive cells using a monoclonal anti-BrdU antibody. Myofibroblast recruitment was quantified after immunoperoxidase staining using peroxidase-conjugated murine anti-human α-smooth muscle actin (α-SMA) 1A4 monoclonal antibody (Sigma).

[10] = system: F4/80-positive interstitial macrophages; assay: F4/80 confocal staining of UUO kidneys; format: in vivo, mice
Description: UUO was performed on 8 week-old wild-type male mice on a C57BL6 background. […] The kidneys (obstructed and contralateral) were harvested at day land day 14 after UUO. Macrophage accumulation was analyzed by confocal staining using F4/80 rat anti-mouse macrophage monoclonal antibody (Serotec Ltd., Oxford, UK).

[11] = system: TGF-β; assay: Real-time PCR of profibrotic cytokines in UUO kidneys: TGF-β; format: in vivo; settings: vs control mice; for down-regulation of TGF-β mRNA levels: day 14 after UUO
Description: (§4) The expression patterns of pro-inflammatory and pro-fibrotic cytokines were investigated at day 7 and day 14 in total kidney homogenate by semi-quantitative real time qPCR.
(§5) UUO was performed on 8 week-old wild-type male mice on a C57BL6 background. […] The kidneys (obstructed and contralateral) were harvested at day land day 14 after UUO.
(§6) Semi-quantitative real-time PCR was performed with specific primers to TGF-β and TGF-β receptor 1 genes using iCycler (Bio-Rad) with standard protocol. […] Semi-quantitative real-time PCR data was analyzed with REST software using both GAPDH and 18S as reference genes. Each sample was performed in triplicate. (‡P<0.05, †P<0.01).

[12] = system: TGF-β receptor 1; assay: Real-time PCR of profibrotic cytokines in UUO kidneys: TGF-β receptor; format: in vivo; settings: vs control mice; for down-regulation of TGF-β receptor mRNA levels: day 14 after UUO
Description: as §4, §5, §6

[13] = system: IL-1β, TNF-α, IL-6, Gal-3, and Endo180; assay: Real-time qPCR of pro-inflammatory and pro-fibrotic cytokines in UUO kidneys; format: in vivo; settings: day 14 after UUO, vs control mice
Description: as §4, §5

[14] = system: total kidney thiol content; assay: Total kidney thiol content in UUO mice; format: in vivo
Description: In order to investigate the importance of total redox status during fibrotic injury, total kidney thiol content was measured as an indicator of antioxidant status.
UUO was performed on 8 week-old wild-type male mice on a C57BL6 background (n=5/group). […] The kidneys (obstructed and contralateral) were harvested at days 7, 14 and 21 after UUO. Tissue from contralateral and UUO kidneys was processed in antioxidant buffer and analyzed for total thiol content fluorometrically and normalized to protein content using a Measure-iT™ Thiol Assay Kit (Invitrogen).

[15] = system: Nox2, Nox4, and SOD1; assay: Real-time qPCR of oxidant and anti-oxidant genes in UUO mice; format: in vivo; settings: day 7 and day 14, qPCR (data not shown)
From the text: In addition, there was no difference between cysteamine-treated and control mice in the modulation of the expression of the oxidant and anti-oxidant genes Nox2, Nox4, and SOD1 as determined by semi-quantitative real time qPCR at day 7 and day 14 (data not shown).

[16] = system: Transglutaminase 2 (TGase2); assay: TGase2 protein expression in UUO kidneys; format: in vivo, mice; settings: 400 mg/kg or 600 mg/kg
From the text: Transglutaminases (TGases) are a family of enzymes that catalyze the transamidation reaction between the γ-carboxyamide of a peptide-bound glutamine residue and the ϵ-amino group of a peptide-bound lysine residue or the primary amine group of a polyamine via forming a thioester acylenzyme intermediate at the active site cysteine. Thus, TGase activity produces cross-linked proteins or amine conjugates. One type of TGase, TGase2, acts to cross link ECM proteins, particularly Collagen III. Cross linking renders proteins resistant to degradation, which is thought to result in accelerated matrix deposition.

[17] = system: intracellular cystine (circulating white blood cells); settings: cited from earlier work
[18] = delivery to the small intestine; cited from earlier work
[19] = biological target: T1, TGase (Homo sapiens, UniProt P21980); settings: in vitro, Jeon et al. 2004; cited from earlier work
T1 sequence (P21980 1-687): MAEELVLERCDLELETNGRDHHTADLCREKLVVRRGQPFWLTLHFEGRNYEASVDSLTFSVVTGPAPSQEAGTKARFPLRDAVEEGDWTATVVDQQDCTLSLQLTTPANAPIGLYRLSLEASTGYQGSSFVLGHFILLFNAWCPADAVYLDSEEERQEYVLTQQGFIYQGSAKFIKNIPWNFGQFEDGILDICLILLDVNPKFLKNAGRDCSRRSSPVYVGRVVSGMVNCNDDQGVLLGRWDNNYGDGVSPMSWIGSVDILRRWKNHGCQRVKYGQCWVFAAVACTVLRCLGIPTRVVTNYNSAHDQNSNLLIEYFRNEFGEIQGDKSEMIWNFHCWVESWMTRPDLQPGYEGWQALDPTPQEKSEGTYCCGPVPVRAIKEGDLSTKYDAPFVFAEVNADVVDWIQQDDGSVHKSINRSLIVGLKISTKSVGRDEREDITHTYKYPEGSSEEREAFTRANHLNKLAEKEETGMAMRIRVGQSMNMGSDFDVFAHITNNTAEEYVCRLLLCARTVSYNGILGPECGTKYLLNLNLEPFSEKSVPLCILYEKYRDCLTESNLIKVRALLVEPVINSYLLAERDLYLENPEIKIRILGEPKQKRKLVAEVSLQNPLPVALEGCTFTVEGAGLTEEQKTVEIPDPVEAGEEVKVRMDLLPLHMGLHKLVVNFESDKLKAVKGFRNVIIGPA

[20] = high doses (600 mg/kg), day 7 after UUO

NCCS [cysteamine HCL]
total renal collagen levels (hydroxyproline) ([1]; 400 mg/kg dose group, daily IP, day 14 after UUO, compared to placebo (PBS)): decreased total collagen levels | deaths ([1]; IP, high dose levels): several mice died | adverse signs observed ([1]; mouse, in vivo, ip): Possible seizures and somnolence

NCCS [cysteamine bitartrate]
Cmax ([2]; read-out: Cmax levels of cysteamine, C57BL/6 mice, 600 mg/kg in drinking water for 3 days): 15 to 20 µM

NCCS.O=C(O)C(O)C(O)C(=O)O (centres unmarked) [cysteamine bitartrate]
severity of fibrosis as measured by total collagen content ([3]; 400 mg/kg in drinking water): attenuated | severity of fibrosis as measured by total collagen content ([3]; 600 mg/kg in drinking water): attenuated | deaths or abnormal behavior ([3]; 200, 400, 600 mg/kg in drinking water, 14 days, even at high doses): No deaths or abnormal behavior was observed | tolerability ([4]; 400 mg/kg/day and 600 mg/kg/day, UUO mice): well-tolerated | reduction of total kidney collagen content ([4]; 400 mg/kg/day in drinking water, vs untreated): 21% | reduction of total kidney collagen content ([4]; 600 mg/kg/day in drinking water, vs untreated): 21% | decrease in collagen levels ([4]; 600 mg/kg/day in drinking water, day 21 after UUO, vs untreated): 25% | collagen reduction by sirius red staining ([4]; UUO kidneys): confirmed | kidney collagen levels ([4]; both doses, 400 and 600 mg/kg/day, by day 14, P<0.01): statistically significant reductions | total collagen, treated vs control ([4]; day 7 after UUO): no difference | increase of E-cadherin levels (marker of tubular damage) [5]: 1.3 fold | reduction in kidney fibronectin mRNA levels ([6]; 400 mg/kg): ~40% | reduction in fibronectin mRNA levels ([6]; 600 mg/kg): ~60% | reduction in procollagen I mRNA levels ([7]; day 7 after UUO): ~60% | procollagen I mRNA levels lower ([7]; day 14 after UUO): 56% | reduction in procollagen III mRNA levels ([8]; 400 mg/kg): ~40% | reduction in procollagen III mRNA levels ([8]; 600 mg/kg): ~60% | reduction in α-SMA-positive myofibroblasts ([9]; 400 mg/kg, day 14 after UUO): ~30% | reduction in α-SMA-positive myofibroblasts ([9]; 600 mg/kg, day 14 after UUO): ~30% | reduction in interstitial macrophage infiltration ([10]; 600 mg/kg/day, day 14 after UUO): 34% | interstitial macrophage infiltration, treated vs control ([10]; day 7 after UUO): No difference | down-regulation of TGF-β mRNA levels ([11]; 400 mg/kg): 47% | down-regulation of TGF-β mRNA levels ([11]; 600 mg/kg): 64% | up-regulation of TGF-β expression [11, 20]: approximately 60% | down-regulation of TGF-β receptor mRNA levels ([12]; 400 mg/kg): 47% | down-regulation of TGF-β receptor mRNA levels ([12]; 600 mg/kg): 64% | up-regulation of TGF-β receptor expression [12, 20]: approximately 60% | expression levels of IL-1β, TNF-α, IL-6, Gal-3, and Endo180 [13]: No difference | plasma levels of cysteamine at the time of sacrifice ([2]; 400 mg/kg in drinking water): 0.81±0.091 Ilmole/L | plasma levels of cysteamine at the time of sacrifice ([2]; 600 mg/kg in drinking water): 1.04±0.151 Ilmole/L | serum levels of cysteamine, night vs day ([2]; C57BL/6 mice, 600 mg/kg in drinking water for 3 days): higher serum levels of cysteamine are achieved at night and lower levels during the day

NCCS [cysteamine, β-mercaptoethylamine]
reduction in α-SMA-positive myofibroblasts ([9]; 400 mg/kg, day 7 after UUO): 38% | reduction in α-SMA-positive myofibroblasts ([9]; 400 mg/kg, day 14 after UUO): 24% | reduction in α-SMA-positive myofibroblasts ([9]; 600 mg/kg, day 7 after UUO): 47% | reduction in α-SMA-positive myofibroblasts ([9]; 600 mg/kg, day 14 after UUO): 33% | total kidney thiol content in UUO kidney ([14]; 400 mg/kg or 600 mg/kg, day 7 after UUO): remained at levels close to that of the contralateral kidney | increase of total kidney thiol content ([14]; high dose (600 mg/kg), compared to controls): 36% | expression of oxidant and anti-oxidant genes Nox2, Nox4, and SOD1, treated vs control [15]: no difference | TGase2 protein expression in UUO kidneys [16]: no difference in TGase2 protein expression | lowering of leukocyte cystine levels ([17]; children with cystinosis, enteral administration (Dohil et al.)): prolonged efficacy in the lowering of leukocyte cystine levels | progression to kidney failure/transplantation ([17]; subjects with cystinosis, taken regularly): reduce the rate of progression to kidney failure/transplantation | depletion of intracellular cystine ([17]; taken regularly, measured in circulating white blood cells): up to 90% | Cmax [18]: increases Cmax | area under the curve (AUC) [18]: increases area under the curve (AUC) | time to decrease in leukocyte cystine [18]: within an hour | TGase inhibition [19]: less potent inhibitor of TGase than both cystamine and primary amines
